# Several values for one entry are separate records, joined by “and”; a condition that tells them apart may be missing. Equal entries are not always repeated. After the bases stand the sugars from the 5' end (letter, count) and the backbone: PS all phosphorothioate, else s phosphorothioate and o phosphodiester by linkage. Methylation of C is not given here. e = 2'-O-(2-methoxyethyl) (MOE); k = constrained ethyl (cEt); d = 2'-deoxy (DNA)
# Target: IRF4
# Conditions: ASO
Sequence,"target mRNA inhibition (MM.1R, 1 µM)","target mRNA inhibition (SK-MEL-28, 4 µM)",other results
"ACTTTTAGAGAGGAGA (sugars e1 k2 d9 k2 e2, PS)",28%,,
"ACTTTTAGAGAGGAGA (sugars k3 d9 k3 e1, PS)",36%,,
"ACTTTTAGAGAGGAGA (sugars k3 d10 k3, PS)",,64%,
"ACTTTTAGAGAGGAGA (sugars kdddddddddkekeke, PS)",17%,,
"ACTTTTAGAGAGGAGA (sugars kkddddddddddkeke, PS)",23%,,
"ACTTTTAGAGAGGAGA (sugars kkdddddddddekeke, PS)",52%,,
"ACTTTTAGAGAGGAGA (sugars kkdddddddddkekek, PS)",40%,,
"AGAAACAGAGACGCGG (sugars k3 d10 k3, PS)",11%,,
"AGAACATTACGAGAGG (sugars k3 d10 k3, PS)",41% and 51%,,"target mRNA inhibition (MM.1R, 0.0625 µM): 2% and 12%; target mRNA inhibition (MM.1R, 0.25 µM): 16% and 20%; target mRNA inhibition (MM.1R, 4 µM): 65% and 66%"
"AGAACTTGCTAAGTCT (sugars k3 d10 k3, PS)",-34%,,
"AGACAAATCTTCTGCC (sugars k3 d10 k3, PS)",,-4%,
"AGACAGGTCTCTACCT (sugars k3 d10 k3, PS)",-12%,,
"AGACATACCTACAAGC (sugars k3 d10 k3, PS)",,50%,
"AGACCAGGATTCGCCA (sugars k3 d10 k3, PS)",,33%,
"AGAGACGCGGTGAGAG (sugars k3 d10 k3, PS)",-20%,,
"AGAGAGTCCGACGCAC (sugars k3 d10 k3, PS)",-18%,,
"AGAGGCGACTGCTGAA (sugars k3 d10 k3, PS)",-19%,,
"AGAGGTGCCTTCTTTA (sugars k3 d10 k3, PS)",18%,,
"AGAGTGGGTGTTGGCC (sugars k3 d10 k3, PS)",,25%,
"AGAGTGGTACACCTCT (sugars k3 d10 k3, PS)",,22%,
"AGATACAAAACGGACT (sugars k3 d10 k3, PS)",-15%,,
"AGATATCCTGCAACTG (sugars k3 d10 k3, PS)",,-9%,
"AGCAAACCCTGCACTC (sugars k3 d10 k3, PS)",,8%,
"AGCAAAGCAAGTGTCT (sugars k3 d10 k3, PS)",,58%,
"AGCAACTAGCAGGGCA (sugars k3 d10 k3, PS)",-2%,,

Sequence,"target mRNA inhibition (MM.1R, 1 µM)","target mRNA inhibition (SK-MEL-28, 4 µM)",other results
"AGCAAGTGGAGGTCTT (sugars k3 d10 k3, PS)",,63%,
"AGCAAGTGTCTTCCAC (sugars k3 d10 k3, PS)",,75% and 72%,
"AGCACCGTGTGGAAAG (sugars k3 d10 k3, PS)",,57%,
"AGCACTGGCATCGAGA (sugars k3 d10 k3, PS)",,59%,
"AGCACTGGCATTGAGA (sugars k3 d10 k3, PS)",,74%,"target mRNA inhibition (MM.1R, 0.074 µM): 4%; target mRNA inhibition (MM.1R, 0.222 µM): 0%; target mRNA inhibition (MM.1R, 0.666 µM): 10%; target mRNA inhibition (MM.1R, 2 µM): 24%; target mRNA inhibition (SK-MEL-28, 0.185 µM): -4% and 10% and -11%; target mRNA inhibition (SK-MEL-28, 15 µM): 86% and 83% and 98%"
"AGCAGTGATGTCAGGT (sugars k2 d9 e3 k2, PS)",69% and 56%,,
"AGCAGTGATGTCAGGT (sugars kkdddddddddekeke, PS)",72% and 70% and 69%,,"target mRNA inhibition (MM.1R, 0.0625 µM): 32%; target mRNA inhibition (MM.1R, 0.25 µM): 54%; target mRNA inhibition (MM.1R, 4 µM): 86%"
"AGCATTTTATCATCCG (sugars k3 d10 k3, PS)",,81%,
"AGCATTTTATCATCCG (sugars kddddddddddkekek, PS)",36%,,
"AGCATTTTATCATCCG (sugars kkdddddddddekeke, PS)",46%,,
"AGCATTTTATCATCCG (sugars kkkddddddddkekek, PS)",22%,,
"AGCCAAAGTGACTTAA (sugars k3 d10 k3, PS)",,58%,
"AGCCAACTTATAGCAC (sugars k3 d10 k3, PS)",,54%,
"AGCCAAGAGGTGCGAG (sugars k3 d10 k3, PS)",,38%,
"AGCCAAGGAGGCGGGC (sugars k3 d10 k3, PS)",,-1%,
"AGCCACGAGGCACCGC (sugars k3 d10 k3, PS)",,12%,
"AGCCATAGCAAATGGC (sugars k3 d10 k3, PS)",,5%,
"AGCCCTTGCTGCAAAT (sugars k3 d10 k3, PS)",-11%,,
"AGCGACCCAAATGTGG (sugars k3 d10 k3, PS)",-2%,,
"AGCTAGCGCGCACTAA (sugars k3 d10 k3, PS)",-8%,,
"AGCTAGTTCATTCCCT (sugars k3 d10 k3, PS)",,48%,
"AGCTCAATAATCTCCC (sugars k3 d10 k3, PS)",6%,,
"AGCTGAATGCTCTCCA (sugars k3 d10 k3, PS)",,78%,
"AGCTGTATTTATGCCC (sugars k3 d10 k3, PS)",,58%,
"AGCTTACTGTGATTCT (sugars k3 d10 k3, PS)",13%,,

Sequence,"target mRNA inhibition (MM.1R, 1 µM)","target mRNA inhibition (SK-MEL-28, 4 µM)",other results
"AGCTTAGTCACCACGG (sugars k3 d10 k3, PS)",,67%,
"AGCTTGATAAAGGCTG (sugars e1 k2 d9 k2 e2, PS)",1%,,
"AGCTTGATAAAGGCTG (sugars k2 d9 e3 k2, PS)",3%,,
"AGCTTGATAAAGGCTG (sugars kkkdddddddddkeke, PS)",-8%,,
"AGCTTGCAGGTCTGGT (sugars k3 d10 k3, PS)",,53%,
"AGGAAACCGCTGGCAG (sugars k3 d10 k3, PS)",,56%,
"AGGAACAATCCTGTAC (sugars k3 d10 k3, PS)",,16%,
"AGGAATGAGGAAGCCG (sugars k3 d10 k3, PS)",,56%,
"AGGAATGGCGGATAGA (sugars k3 d10 k3, PS)",,38%,
"AGGAGGGTTGGCCTGC (sugars k3 d10 k3, PS)",,4%,
"AGGATAATATACCCCA (sugars k3 d10 k3, PS)",,74%,
"AGGCACATCAATGTTT (sugars kkdddddddddekeke, PS)",42% and 35%,,
"AGGCACATCAATGTTT (sugars kkdddddddddkekek, PS)",16% and 19%,,
"AGGCACATGAGAAATC (sugars k3 d10 k3, PS)",,23%,
"AGGCGCGGACGCACGG (sugars k3 d10 k3, PS)",,31%,
"AGGCTCCTACCCGCCT (sugars k3 d10 k3, PS)",,6%,
"AGGGAGACAGCTCTAG (sugars k3 d10 k3, PS)",,25%,
"AGGTAAATCTTCACTG (sugars k3 d10 k3, PS)",,54%,
"AGGTAAGATCTCCATG (sugars k3 d10 k3, PS)",32%,,
"AGGTAGTAGACCACAG (sugars k3 d10 k3, PS)",,59%,
"AGGTTGCCGAGATATA (sugars k3 d10 k3, PS)",54% and 67%,,
"AGTAAACTTGGCTGTG (sugars k3 d10 k3, PS)",,38%,
"AGTAAGAGGGCAGTCA (sugars k3 d10 k3, PS)",,50%,
"AGTATGAGAAACGGCC (sugars k3 d10 k3, PS)",,62%,
"AGTATGAGAAACGGCC (sugars kddddddddddkekek, PS)",10%,,

Sequence,"target mRNA inhibition (MM.1R, 1 µM)","target mRNA inhibition (SK-MEL-28, 4 µM)",other results
"AGTATGAGAAACGGCC (sugars kkdddddddddekeke, PS)",11%,,
"AGTCACGCAATGGCAA (sugars k3 d10 k3, PS)",,50%,
"AGTCAGTGTCAATACT (sugars k3 d10 k3, PS)",,47%,
"AGTCTTTTCGCATAGA (sugars k3 d10 k3, PS)",,45%,
"AGTGACTTGCATCCAT (sugars k2 d9 e3 k2, PS)",52%,,
"AGTGACTTGCATCCAT (sugars kdddddddddkekeke, PS)",8%,,
"AGTGATGAGATATTCC (sugars k3 d10 k3, PS)",,59%,
"AGTGATGTCAGGTTTT (sugars k2 d9 e3 k2, PS)",25%,,
"AGTGATGTCAGGTTTT (sugars k3 d10 k3, PS)",,72%,
"AGTGATGTCAGGTTTT (sugars kdddddddddkekeke, PS)",40%,,
"AGTGATGTCAGGTTTT (sugars kkddddddddddkeke, PS)",32%,,
"AGTGATGTCAGGTTTT (sugars kkkddddddddkekek, PS)",37%,,
"AGTGCAGGAGAGGCTG (sugars k3 d10 k3, PS)",,36%,
"AGTGCCCAAGCCTTGA (sugars k3 d10 k3, PS)",,48%,
"AGTGGAGGTCTTTGGG (sugars k3 d10 k3, PS)",,55%,
"AGTGTAACTGAGGACT (sugars k3 d10 k3, PS)",,-7%,
"AGTGTCTAAAGTCCCA (sugars kdddddddddkekeke, PS)",-12% and 12%,,
"AGTGTCTAAAGTCCCA (sugars kkdddddddddekeke, PS)",18% and 19%,,
"AGTGTCTAAAGTCCCA (sugars kkdddddddddkekek, PS)",26% and 9%,,
"AGTTCATGTAAAGTCT (sugars kkdddddddddekeke, PS)",51% and 49%,,
"AGTTGTAAATGAGTCG (sugars kkdddddddddkdkdk, PS)",39%,,
"AGTTGTAAATGAGTCG (sugars kkkddddddddkekek, PS)",61%,,"target mRNA inhibition (MM.1R, 0.074 µM): 18%; target mRNA inhibition (MM.1R, 0.222 µM): 46%; target mRNA inhibition (MM.1R, 0.666 µM): 49%; target mRNA inhibition (MM.1R, 2 µM): 73%"
"AGTTTAAGGGTTACGC (sugars k3 d10 k3, PS)",4% and 24%,63%,"target mRNA inhibition (MM.1R, 0.0625 µM): -2% and 15%; target mRNA inhibition (MM.1R, 0.074 µM): 7%; target mRNA inhibition (MM.1R, 0.222 µM): 8%; target mRNA inhibition (MM.1R, 0.666 µM): 20%; target mRNA inhibition (MM.1R, 2 µM): 28%; target mRNA inhibition (MM.1R, 4 µM): 22% and 40%"
"AGTTTACTAACTGGCT (sugars k3 d10 k3, PS)",,63%,
